Patent US20080096894A1, “Anti-Bacterial Compounds” (ASTON UNIVERSITY, priority 2005, published 2008)

Tests used:
[1] = tested on: human mononuclear leucocytes (MNL, white blood cells); settings: rat liver microsomes added; Coleman et al 1999; cited from earlier work
[2] = tested on: human mononuclear leucocytes (MNL, white blood cells); experiment: direct leucocyte toxicity, tryptan blue exclusion, 18 hours; format: cell-based; settings: human, 18 h, 1 mM
Protocol: The in vitro assay used human mononuclear leucocytes (MNL, white blood cells) which were incubated with the test compound for 18 hours and cell death determined by tryptan blue exclusion (tryptan blue is a dye, which stains dead cells, whilst living cells extrude it).
The toxicity of 4PYcq and the aldehyde cq and pyridine-4-carboxamidrazone precursors were assessed using the same in vitro assay with human mononuclear leucocytes as that described above. The toxicity of related compounds, 2-hydroxybenzylidene-pyridine-2-carboxamidrazone 4PYbw and benzylidenepyridine-2-carboxamidrazone 4PYaa were also examined.

MRSA = experiment: MIC, agar dilution, multipoint inoculator; format: cell-based, methicillin-resistant Staphylococcus aureus; settings: Staphylococcus aureus, MRSA, 18 h, panel of ten MRSA strains (clinical isolates); read-out: MRSA MIC range
In short: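 Agar dilution MIC on Mueller Hinton agar, multipoint inoculator delivering 10^4 colony forming units per spot. MRSA values are ranges across ten clinical MRSA strains; S. aureus NCTC 6571 as reference strain.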

Micrococcus roseus = experiment: MIC, doubling dilution in 96-well microtitre plate; format: cell-based
Protocol: (§1) The compound was tested as follows. […] The wells were inoculated with organism ([…] of medium containing 10^6 cfu/mL) and the plates were incubated at 37° C. overnight. Where growth of organism occurred this was observed as a small button when viewed from underneath the plate. The MIC was determined as the lowest concentration inhibiting growth.

Bacillus subtilis = experiment: MIC, doubling dilution in 96-well microtitre plate; format: cell-based
Protocol: as §1

Moraxella catarrhalis = experiment: MIC, doubling dilution in 96-well microtitre plate; format: cell-based
Protocol: as §1

Bacillus cereus = experiment: MIC, doubling dilution in 96-well microtitre plate; format: cell-based
Protocol: as §1

Enterococcus faecium = experiment: MIC, doubling dilution in 96-well microtitre plate; format: cell-based
Protocol: as §1

Bacillus megarerium = experiment: MIC, doubling dilution in 96-well microtitre plate; format: cell-based
Protocol: as §1

Micrococcus luteus = experiment: MIC, doubling dilution in 96-well microtitre plate; format: cell-based
Protocol: as §1

[3] = tested on: Enterococcus faecalis NCTC 5957; experiment: MIC, doubling dilution in 96-well microtitre plate; format: cell-based
Protocol: as §1

[4] = tested on: Streptococcus bovis NCTC 11436; experiment: MIC, doubling dilution in 96-well microtitre plate; format: cell-based
Protocol: as §1

[5] = tested on: Staphylococcus epidermidis NCTC 11047; experiment: MIC, doubling dilution in 96-well microtitre plate; format: cell-based
Protocol: as §1

Bacillus polymyxa = experiment: MIC, doubling dilution in 96-well microtitre plate; format: cell-based
Protocol: as §1

[6] = tested on: Staphylococcus aureus (MRSA) 96-7475; experiment: MIC, doubling dilution in 96-well microtitre plate; format: cell-based
Protocol: as §1

[7] = tested on: Staphylococcus aureus NCTC 6571; experiment: MIC, doubling dilution in 96-well microtitre plate; format: cell-based
Protocol: as §1

[8] = tested on: Staphylococcus aureus W11 MRSA; experiment: MIC, doubling dilution in 96-well microtitre plate; format: cell-based
Protocol: as §1

[9] = tested on: Staphylococcus aureus NCTC 10788; experiment: MIC, doubling dilution in 96-well microtitre plate; format: cell-based
Protocol: as §1

E. faecium isolates = settings: against 86% of E. faecium isolates; cited from earlier work
[10] = Enterococcus faecium ATCC 10541

Compound | MIC (Micrococcus roseus) [µg/mL] | MIC (Bacillus subtilis) [µg/mL] | MIC (Moraxella catarrhalis) [µg/mL] | MIC (Bacillus cereus) [µg/mL] | MIC (Enterococcus faecium; [10]) [µg/mL] | MIC (Bacillus megarerium) [µg/mL] | MIC (Micrococcus luteus) [µg/mL] | MIC [3] [µg/mL] | MIC [4] [µg/mL] | other results
N/C(=N\N=C\c1cccc2ccccc12)c1ccccn1 [Compound 2PYal] | – | – | – | – | – | – | – | – | – | cytotoxicity in the presence of the metabolising system (in words) [1]: marked reduction in cytotoxicity; % Leucocyte Death [2]: 17.1 ± 4.9%; MIC (MRSA): > 256 µg/mL
NC(=NN=Cc1cccc2ccccc12)c1cc[n+]([O-])cc1 [Compound 4PYOal] | 16 to 32 | 16 to 32 | 16 to 32 | 8 to 16 | 16 to 32 | 16 to 32 | 16 to 32 | – | – | –
NC(=NN=Cc1c2ccccc2cc2ccccc12)c1cc[n+]([O-])cc1 [Compound 4PYOam] | 32 to 64 | 64 to 128 | – | – | 64 to 128 | – | – | 64 to 128 | – | –
CC(C)(C)c1cc(C=NN=C(N)c2cc[n+]([O-])cc2)c(O)c(C(C)(C)C)c1 [Compound 4PYOcq] | 1 to 2 | 64 to 128 | 32 to 64 | 16 to 32 | 32 to 64 | 32 to 64 | 8 to 16 | 64 to 128 | 64 to 128 | MIC [5]: 32 to 64 µg/mL; MIC (Bacillus polymyxa): 1 to 2 µg/mL; MIC [6]: 64 to 128 µg/mL; MIC (Enterococcus faecium; Enterococcus faecium NCTC 7171): 32 to 64 µg/mL; MIC [7]: 16 to 32 µg/mL
CC(=O)Nc1ccc(C=NN=C(N)c2cc[n+]([O-])cc2)cc1 [Compound 4PYOfa] | 16 to 32 | 4 to 8 | – | 8 to 16 | 16 to 32 | 16 to 32 | – | – | – | –
CC(C)(C)c1ccc(C=NN=C(N)c2cc[n+]([O-])cc2)cc1 [Compound 4PYOfb] | 8 to 16 | 8 to 16 | 32 to 64 | 16 to 32 | 16 to 32 | 16 to 32 | – | – | – | –
CC(C)(C)c1cc(C=NN=C(N)c2cc[n+]([O-])cc2)cc(C(C)(C)C)c1 [Compound 4PYOff] | – | 32 to 64 | 16 to 32 | 32 to 64 | 32 to 64 | – | 32 to 64 | 32 to 64 | 32 to 64 | MIC [5]: 32 to 64 µg/mL; MIC [8]: 32 to 64 µg/mL; MIC [6]: 32 to 64 µg/mL; MIC [9]: 32 to 64 µg/mL; MIC [7]: 32 to 64 µg/mL
CC(C)(C)c1cccc(C=NN=C(N)c2cc[n+]([O-])cc2)c1O [Compound 4PYOfg] | – | – | 4 to 8 | – | – | – | 8 to 16 | – | 32 to 64 | –
quinupristin/dalfopristin | – | – | – | – | – | – | – | – | – | MIC (E. faecium isolates): ≤ 2 µg/mL
